Data from patent US20240208968A1, “ALPHA V BETA 6 AND ALPHA V BETA 1 INTEGRIN INHIBITORS AND USES THEREOF” (DiCE Molecules SV, Inc., priority 2021, published 2024).
Counter-ions that a name gives are not always drawn.

Columns and labels:
αvβ1 = αvβ1 (Homo sapiens, UniProt P05556+P06756); test: Solid Phase Integrin αvβ1 Assay; type: binding
Procedure, shortened: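 Wells coated with 1 µg/mL recombinant TGFb1-LAP and blocked with 2% BSA/TBST, 1 mM MnCl2; αvβ1 (added at 0.2 µg/mL) and compound incubated 90 min at room temperature. Bound integrin detected by streptavidin-HRP (20 min) and TMB after Mn-containing washes; IC50 by four-parameter logistic fit.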

αvβ6 = αvβ6 (Homo sapiens, UniProt P06756+P18564); test: Solid Phase Integrin αvβ6 Assay; type: binding
Procedure, shortened: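 Plates coated with 1 μg/mL recombinant TGFb1-LAP; compounds and αvβ6 (0.2 μg/mL diluted stock) incubated 1 h at room temperature in 2% BSA/TBST with 1 mM MnCl2. Bound integrin detected with streptavidin-HRP and TMB; IC50 from four-parameter logistic fits.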

Chain of αvβ6 (P06756 31-992 limits assumed): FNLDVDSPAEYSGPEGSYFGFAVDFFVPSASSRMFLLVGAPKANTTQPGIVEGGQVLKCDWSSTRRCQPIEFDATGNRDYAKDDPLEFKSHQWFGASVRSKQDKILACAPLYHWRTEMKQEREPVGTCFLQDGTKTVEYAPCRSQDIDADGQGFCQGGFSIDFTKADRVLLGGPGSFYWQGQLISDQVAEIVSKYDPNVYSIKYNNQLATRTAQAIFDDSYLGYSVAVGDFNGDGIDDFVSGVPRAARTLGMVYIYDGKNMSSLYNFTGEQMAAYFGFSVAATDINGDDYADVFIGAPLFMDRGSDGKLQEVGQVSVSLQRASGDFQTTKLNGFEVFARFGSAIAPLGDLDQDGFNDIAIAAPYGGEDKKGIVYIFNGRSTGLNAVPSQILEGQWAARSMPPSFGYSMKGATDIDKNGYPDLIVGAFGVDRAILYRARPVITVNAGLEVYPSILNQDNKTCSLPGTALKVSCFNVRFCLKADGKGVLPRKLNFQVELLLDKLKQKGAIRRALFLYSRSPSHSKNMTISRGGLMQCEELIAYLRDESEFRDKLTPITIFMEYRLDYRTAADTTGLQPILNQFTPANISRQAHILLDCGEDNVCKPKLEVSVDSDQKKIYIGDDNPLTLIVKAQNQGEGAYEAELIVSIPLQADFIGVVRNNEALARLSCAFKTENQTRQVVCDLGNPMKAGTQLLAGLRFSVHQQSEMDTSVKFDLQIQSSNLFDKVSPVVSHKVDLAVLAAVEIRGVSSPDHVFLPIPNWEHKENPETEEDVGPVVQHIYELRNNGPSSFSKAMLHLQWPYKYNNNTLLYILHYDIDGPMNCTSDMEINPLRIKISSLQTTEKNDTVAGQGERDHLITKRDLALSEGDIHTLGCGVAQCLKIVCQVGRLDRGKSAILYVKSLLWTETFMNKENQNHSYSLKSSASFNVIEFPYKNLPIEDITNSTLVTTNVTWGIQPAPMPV
Chain of αvβ6 (P18564 22-707 limits assumed): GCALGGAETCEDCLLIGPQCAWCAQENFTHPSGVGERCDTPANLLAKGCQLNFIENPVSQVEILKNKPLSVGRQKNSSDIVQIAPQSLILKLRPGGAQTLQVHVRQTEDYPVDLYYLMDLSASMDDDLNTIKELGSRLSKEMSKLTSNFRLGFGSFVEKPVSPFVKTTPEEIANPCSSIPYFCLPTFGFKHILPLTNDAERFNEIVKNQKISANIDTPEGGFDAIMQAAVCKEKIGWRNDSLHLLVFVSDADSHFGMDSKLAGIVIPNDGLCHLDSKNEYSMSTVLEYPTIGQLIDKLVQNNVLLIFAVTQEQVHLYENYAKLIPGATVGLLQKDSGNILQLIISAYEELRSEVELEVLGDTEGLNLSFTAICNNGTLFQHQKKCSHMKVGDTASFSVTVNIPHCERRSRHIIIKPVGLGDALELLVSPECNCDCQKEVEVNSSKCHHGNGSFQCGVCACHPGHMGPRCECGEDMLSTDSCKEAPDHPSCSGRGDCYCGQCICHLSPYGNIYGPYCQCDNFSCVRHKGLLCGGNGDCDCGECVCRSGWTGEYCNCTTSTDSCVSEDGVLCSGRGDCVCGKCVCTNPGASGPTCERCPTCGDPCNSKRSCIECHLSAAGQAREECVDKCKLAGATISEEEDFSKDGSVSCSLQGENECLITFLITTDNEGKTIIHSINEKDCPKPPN
Chain of αvβ1 (P06756 31-992 limits assumed): as the sequence (P06756 31-992 limits assumed) above
Chain of αvβ1 (P05556 21-728 limits assumed): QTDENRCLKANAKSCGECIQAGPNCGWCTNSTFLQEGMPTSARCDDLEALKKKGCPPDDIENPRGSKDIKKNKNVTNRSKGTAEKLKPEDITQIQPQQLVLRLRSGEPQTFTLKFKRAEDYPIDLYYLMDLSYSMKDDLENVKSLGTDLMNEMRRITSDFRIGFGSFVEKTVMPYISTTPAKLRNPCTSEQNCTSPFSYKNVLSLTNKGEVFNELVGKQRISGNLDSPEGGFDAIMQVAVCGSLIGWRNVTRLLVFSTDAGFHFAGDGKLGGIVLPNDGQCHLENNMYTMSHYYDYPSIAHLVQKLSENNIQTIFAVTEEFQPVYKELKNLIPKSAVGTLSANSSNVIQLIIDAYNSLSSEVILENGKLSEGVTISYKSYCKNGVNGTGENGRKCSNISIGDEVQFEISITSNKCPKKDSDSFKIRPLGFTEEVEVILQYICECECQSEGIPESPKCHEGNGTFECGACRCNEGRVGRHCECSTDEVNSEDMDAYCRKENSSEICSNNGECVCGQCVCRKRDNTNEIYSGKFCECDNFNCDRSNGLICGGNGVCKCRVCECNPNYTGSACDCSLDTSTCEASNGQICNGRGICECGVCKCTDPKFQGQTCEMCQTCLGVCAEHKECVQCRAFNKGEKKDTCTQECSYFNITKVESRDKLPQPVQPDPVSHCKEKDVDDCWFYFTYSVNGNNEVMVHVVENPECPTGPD

| SMILES | IC50 (αvβ1) [nM] | IC50 (αvβ6) [nM] |
| --- | --- | --- |
| O=C(NC[C@@H](Nc1cncc(-c2ccccc2)c1)C(=O)O)[C@@H]1CCCN(CCCc2ccc3c(n2)NCCC3)C1 [Compound 376] | < 100 | < 100 |
| O=C(O)C[C@H](NC(=O)[C@@H]1CCCN(CCCc2ccc3c(n2)NCCC3)C1)c1cccc(N2CCCC2)c1 [Compound 227, (S)-3-(3-(pyrrolidin-1-yl)phenyl)-3-((R)-1-(3-(5,6,7,8-tetrahydro-1,8-naphthyridin-2-yl)propyl)piperidine-3-carboxamido)propanoic acid] | < 100 | < 100 |
| O=C(NC[C@@H](C(=O)O)c1cccc2cnn([C@@H]3CCOC3)c12)[C@@H]1CCCN(CCCc2ccc3c(n2)NCCC3)C1 [Compound 322] | 100 to 1000 | > 1000 |
| O=C(N[C@H](CCO[C@@H]1CCCN(CCCc2ccc3c(n2)NCCC3)C1)C(=O)O)c1c(F)cccc1F [Compound 480] | 100 to 1000 | 100 to 1000 |
| O=C(O)[C@@H](CO[C@@H]1CCCN(CCCCc2ccc3c(n2)NCCC3)C1)Nc1ncnc2ccccc12 [Compound 410] | > 1000 | > 1000 |
| O=C(NC[C@H](C(=O)O)c1cccc(N2C[C@@H]3CC[C@H]2CO3)c1)[C@@H]1CCCN(CCCc2ccc3c(n2)NCCC3)C1 [Compound 566] | < 100 | < 100 |
| O=C(CC[C@@H](NC(=O)C12CCC(CC1)CC2)C(=O)O)N[C@@H]1CCN(CCCCc2ccc3c(n2)NCCC3)C1 [Compound 427] | > 1000 | > 1000 |
| O=C(NC[C@H](C(=O)O)c1ccc(C2CC2)cc1)[C@@H]1CCCN(CCCc2ccc3c(n2)NCCC3)C1 [Compound 259-A, 2-(4-cyclopropylphenyl)-3-((R)-1-(3-(5,6,7,8-tetrahydro-1,8-naphthyridin-2-yl)propyl)piperidine-3-carboxamido)propanoic acid] | < 100 | < 100 |
| O=C(O)[C@H](CCO[C@H]1CCCN(CCCc2ccc3c(n2)NCCC3)C1)NC(=O)C12CCC(CC1)CC2 [Compound 447] | < 100 | < 100 |
| CC(C)(C(=O)N[C@@H](CNC(=O)[C@@H]1CCCN(CCCc2ccc3c(n2)NCCC3)C1)C(=O)O)c1ccccc1 [Compound 546] | < 100 | < 100 |
| O=C(O)C[C@H](NC(=O)[C@H]1CN(CCCc2ccc3c(n2)NCCC3)CC(F)(F)C1)c1ccccc1 [Compound 291-B, (3S)-3-(5,5-difluoro-1-(3-(5,6,7,8-tetrahydro-1,8-naphthyridin-2-yl)propyl)piperidine-3-carboxamido)-3-phenylpropanoic acid] | 100 to 1000 | 100 to 1000 |
| O=C(CC[C@@H](NC(=O)C12CCC(CC1)CC2)C(=O)O)N[C@@H]1CCN(C(=O)CCCc2ccc3c(n2)NCCC3)C1 [Compound 429] | > 1000 | > 1000 |
| O=C(O)CC(CO[C@H]1CCCN(CCCc2ccc3c(n2)NCCC3)C1)c1ccccc1 (stereo partly drawn) [Compound 337] | 100 to 1000 | 100 to 1000 |
| O=C(O)C[C@@H](CO[C@@H]1CCCN(CCCc2ccc3c(n2)NCCC3)C1)c1cccc([C@H]2CCOC2)c1 [Compound 507] | < 100 | < 100 |
| O=C(NC[C@H](Nc1ncnc2ccccc12)C(=O)O)[C@@H]1CCCN(CCCc2ccc3c(n2)NCCC3)C1 [Compound 271, (S)-2-(quinazolin-4-ylamino)-3-((R)-1-(3-(5,6,7,8-tetrahydro-1,8-naphthyridin-2-yl)propyl)piperidine-3-carboxamido)propanoic acid] | < 100 | < 100 |
| O=C(NC[C@H](Nc1ncnc2cc(F)c(F)cc12)C(=O)O)[C@@H]1CCCN(CCCc2ccc3c(n2)NCCC3)C1 [Compound 278, (2S)-2-[(6,7-difluoroquinazolin-4-yl)amino]-3-[[(3R)-1-[3-(5,6,7,8-tetrahydro-1,8-naphthyridin-2-yl)propyl]piperidine-3-carbonyl]amino]propanoic acid] | < 100 | < 100 |
| CC1(C)CN(c2cccc([C@@H](CO[C@@H]3CCCN(CCCc4ccc5c(n4)NCCC5)C3)CC(=O)O)c2)CCO1 [Compound 568] | < 100 | < 100 |
| O=C(O)C[C@H](CO[C@H]1CCCN(CCCc2ccc3c(n2)NCCC3)C1)c1ccccc1 [Compound 442] | 100 to 1000 | 100 to 1000 |
| O=C(O)C[C@@H](NC(=O)[C@@H]1CCCN(CCCc2ccc3c(n2)NCCC3)C1)c1cnc2ccccc2c1 [Compound 413] | < 100 | < 100 |
| C[C@H]1CN(c2cccc([C@H](CNC(=O)[C@@H]3CCCN(CCCc4ccc5c(n4)NCCC5)C3)C(=O)O)c2)C[C@H](C)O1 [Compound 603] | < 100 | < 100 |

| SMILES | IC50 (αvβ1) [nM] | IC50 (αvβ6) [nM] |
| --- | --- | --- |
| O=C(O)[C@H](CCO[C@@H]1CCCN(CCCc2ccc3c(n2)NCCC3)C1)c1ccc(F)c(-c2ccccc2)c1 [Compound 499] | > 1000 | < 100 |
| CC1(C)CN(c2cc([C@H](CO[C@@H]3CCCN(CCCc4ccc5c(n4)NCCC5)C3)CC(=O)O)ccc2Cl)CCO1 [Compound 648] | 100 to 1000 | 100 to 1000 |
| O=C(O)C[C@H](NC(=O)[C@]1(F)CCCN(CCCc2ccc3c(n2)NCCC3)C1)c1ccccc1 [Compound 555] | 100 to 1000 | 100 to 1000 |
| O=C(NC[C@H](C(=O)O)c1ccc(-c2ccccc2)cc1)[C@@H]1CCCN(CCCc2ccc3c(n2)NCCC3)C1 [Compound 342] | < 100 | < 100 |
| O=C(O)[C@@H](CO[C@@H]1CCCN(CCCCc2ccc3c(n2)NCCC3)C1)c1ccccc1 [Compound 394] | > 1000 | > 1000 |
| O=C(O)C[C@H](NC(=O)[C@@H]1CCCN(C(=O)CCc2ccc3c(n2)NCCC3)C1)c1ccccc1 [Compound 289, (S)-3-phenyl-3-((R)-1-(3-(5,6,7,8-tetrahydro-1,8-naphthyridin-2-yl)propanoyl)piperidine-3-carboxamido)propanoic acid hydrochloride] | 100 to 1000 | 100 to 1000 |
| Cc1cc(C)n(-c2cccc([C@@H](CO[C@@H]3CCCN(CCCc4ccc5c(n4)NCCC5)C3)CC(=O)O)c2)n1 [Compound 574] | < 100 | < 100 |
| CC1(C)CCCN(c2cccc([C@H](CO[C@@H]3CCCN(CCCc4ccc5c(n4)NCCC5)C3)CC(=O)O)c2)C1 [Compound 572] | < 100 | < 100 |
| O=C(O)C[C@H](CO[C@@H]1CCCN(CCCc2ccc3c(n2)NCCC3)C1)c1cccc(N2C[C@@H]3CC[C@H]2CO3)c1 [Compound 462] | < 100 | < 100 |
| O=C(O)[C@@H](CO[C@@H]1CCCN(CCCc2ccc3c(n2)NCCC3)C1)NC(=O)C12CCC(CC1)CC2 [Compound 382] | > 1000 | > 1000 |
| O=C(NC[C@H](Nc1ncnc2sccc12)C(=O)O)[C@@H]1CCCN(CCCc2ccc3c(n2)NCCC3)C1 [Compound 279, (S)-3-((R)-1-(3-(5,6,7,8-tetrahydro-1,8-naphthyridin-2-yl)propyl)piperidine-3-carboxamido)-2-(thieno[2,3-d]pyrimidin-4-ylamino)propanoic acid] | < 100 | < 100 |
| O=C(O)C[C@H](CO[C@@H]1CCCN(CCCc2ccc3c(n2)NCCC3)C1)c1ccccc1 [Compound 297-A, 3-phenyl-4-(((R)-1-(3-(5,6,7,8-tetrahydro-1,8-naphthyridin-2-yl)propyl)piperidin-3-yl)oxy)butanoic acid] | 100 to 1000 | 100 to 1000 |
| O=C(CC[C@@H](C(=O)O)c1ccccc1)N[C@H]1CCN(C(=O)CCCc2ccc3c(n2)NCCC3)C1 [Compound 423] | > 1000 | > 1000 |
| O=C(NC[C@@H](C(=O)O)c1cccc(-c2ccccc2)c1)[C@@H]1CCCN(CCCc2ccc3c(n2)NCCC3)C1 [Compound 256-A, 2-([1,1′-biphenyl]-3-yl)-3-((R)-1-(3-(5,6,7,8-tetrahydro-1,8-naphthyridin-2-yl)propyl)piperidine-3-carboxamido)propanoic acid] | 100 to 1000 | 100 to 1000 |
| O=C(NC[C@@H](C(=O)O)c1cccc2nn(CC3CC3)cc12)[C@@H]1CCCN(CCCc2ccc3c(n2)NCCC3)C1 [Compound 316] | 100 to 1000 | > 1000 |
| O=C(O)C[C@H](CO[C@@H]1CCCN(CCCc2ccc3c(n2)NCCC3)C1)c1ccnc(C2CC2)c1 [Compound 490] | < 100 | < 100 |
| CC1(C)CN(c2cccc([C@H](CC(=O)O)NC(=O)[C@@H]3CCCN(CCCc4ccc5c(n4)NCCC5)C3)c2)CC(C)(C)O1 [Compound 242, (S)-3-((R)-1-(3-(5,6,7,8-tetrahydro-1,8-naphthyridin-2-yl)propyl)piperidine-3-carboxamido)-3-(3-(2,2,6,6-tetramethylmorpholino)phenyl)propanoic acid] | < 100 | < 100 |
| Cc1cc(C)n(-c2cccc([C@@H](CNC(=O)[C@@H]3CCCN(CCCc4ccc5c(n4)NCCC5)C3)C(=O)O)c2)n1 [Compound 257-B, 2-(3-(3,5-dimethyl-1H-pyrazol-1-yl)phenyl)-3-((R)-1-(3-(5,6,7,8-tetrahydro-1,8-naphthyridin-2-yl)propyl)piperidine-3-carboxamido)propanoic acid] | < 100 | < 100 |
| O=C(NC[C@H](Nc1nc2ccccc2s1)C(=O)O)[C@@H]1CCCN(CCCc2ccc3c(n2)NCCC3)C1 [Compound 281, (2S)-2-(1,3-benzothiazol-2-ylamino)-3-[[(3R)-1-[3-(5,6,7,8-tetrahydro-1,8-naphthyridin-2-yl)propyl]piperidine-3-carbonyl]amino]propanoic acid] | < 100 | < 100 |
